# From PMC2879651 (Bioanalysis, 2009)
# Where two headings read alike, the source gives them in different places.
# Columns and labels:
# [1] = rats, 1 hour after bufotenine 30 mg/kg s.c.; cited from earlier work
# [2] = assay type: in vivo, male FVB/N mice; conditions: for Cmax / MRT: male, FVB/N, mouse, ip, 2 mg/kg; for AUC0→t (AUC0→60 min): 0-60 min
# [3] = fatal intoxication after ingestion of Ayahuasca preparation; cited from earlier work
SMILES,brain over blood ratio of drug concentration [1],Cmax ([2]; serum) [ng/mL],MRT ([2]; serum) [min],"serum concentration at 90 min ([2]; mice, 90 min after 5-MeO-DMT 2 mg/kg i.p., metabolite)","systemic exposure (AUC) to bufotenine relative to that to 5-MeO-DMT ([2]; mice, after 5-MeO-DMT 2 mg/kg i.p.)","Tmax ([2]; mice, serum, after 5-MeO-DMT 2 mg/kg i.p., bufotenine as metabolite) [min]","AUC0→t (AUC0→60 min) ([2]; mice, serum, after 5-MeO-DMT 2 mg/kg i.p., metabolite) [µg·min/L]","AUC0→t (AUC0→60 min) ([2]; mice, serum, after 5-MeO-DMT 2 mg/kg i.p., metabolite, listed as bufotenine) [µg·min/L]","serum concentration at 60 min relative to Cmax ([2]; mice, 60 min after 5-MeO-DMT 2 mg/kg i.p.) [%]","AUC0→t (AUC0→90 min) ([2]; mice, serum, after 5-MeO-DMT 2 mg/kg i.p., 0-90 min)",concentration in heart blood of decedent [3] [ng/mL]
"CN(C)CCc1c[nH]c2ccc(O)cc12 [Bufotenine, bufotenine]",1/15,10.6 ± 2.3,24.3,below the LLOQ,about 1/14,13.3 ± 5.8,388 ± 82,388,–,–,–
"COc1ccc2[nH]cc(CCN(C)C)c2c1 [5-MeO-DMT, 5-Methoxy-N,N-dimethyltryptamine, reference compound]",–,298 ± 29,17.6,–,–,–,–,–,4.4,"6,000 ± 1,240 µg·min/L",1880
